{"source": "patent US20080200492A1", "about": "“METHODS FOR THE TREATMENT OF ALCOHOL ABUSE, ADDICTION AND DEPENDENCY” (priority 2006, published 2008)", "origin": "cited, not measured here", "test_system": "golden hamster", "settings": "cited from earlier work"}
{"smiles": "O=c1c(-c2ccc(O)cc2)coc2cc(O[C@@H]3O[C@H](CO)[C@@H](O)[C@H](O)[C@H]3O)ccc12", "note": "[Daidzin]", "values": [{"measurement": "Alcohol drinking, water or food intake", "result": "decreases alcohol drinking in the golden hamster, without producing a decrease in water or food intake"}]}
